From patent publication US7763596B2, “Selective glucocorticoid receptor agonists” (The University of Manchester, priority 2000, dated 2010) come the findings set out here.

Assay [1] deals with T1, glucocorticoid receptor (Homo sapiens, UniProt P04150).
T1 sequence (P04150 1-777): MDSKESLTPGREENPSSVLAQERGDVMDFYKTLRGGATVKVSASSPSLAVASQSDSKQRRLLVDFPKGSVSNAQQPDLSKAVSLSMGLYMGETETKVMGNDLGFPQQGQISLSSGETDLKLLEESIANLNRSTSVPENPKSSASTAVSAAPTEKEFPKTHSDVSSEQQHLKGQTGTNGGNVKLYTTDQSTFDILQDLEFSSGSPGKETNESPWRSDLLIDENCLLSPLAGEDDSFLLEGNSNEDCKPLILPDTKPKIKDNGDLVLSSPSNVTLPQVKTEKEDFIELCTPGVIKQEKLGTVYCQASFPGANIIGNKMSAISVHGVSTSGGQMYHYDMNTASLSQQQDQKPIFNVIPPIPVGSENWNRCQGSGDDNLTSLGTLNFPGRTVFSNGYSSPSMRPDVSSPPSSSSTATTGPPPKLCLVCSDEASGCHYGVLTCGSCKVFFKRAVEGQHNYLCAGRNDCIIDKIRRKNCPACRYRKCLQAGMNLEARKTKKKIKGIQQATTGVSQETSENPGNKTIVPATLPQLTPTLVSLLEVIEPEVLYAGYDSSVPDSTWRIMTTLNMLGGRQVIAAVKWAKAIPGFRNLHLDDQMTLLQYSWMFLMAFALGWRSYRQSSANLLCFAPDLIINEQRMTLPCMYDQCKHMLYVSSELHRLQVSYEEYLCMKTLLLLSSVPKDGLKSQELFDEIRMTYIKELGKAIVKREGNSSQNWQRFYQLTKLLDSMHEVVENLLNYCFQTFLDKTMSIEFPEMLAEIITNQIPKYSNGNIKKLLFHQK
The assay can be described thus: Transrepression assay using artificially expressed glucocorticoid receptor and P65 in the COS 7 cell line (NRE luciferase). The format is cell-based. Details: expressed in transfected cells; host or cells: COS 7 (African green monkey kidney, deficient in endogenous GR). Particulars: 1, 10 and 100 nM. The procedure:
(§1) All transfections were performed using lipofectamine plus (Gibco BRL), according to the manufacturers' instructions, as previously described^1. Briefly, all cells were seeded at 5×10^5 per 10 cm tissue culture plate 18 hours before transfection, the next day the relevant plasmids were mixed with serum free medium and “Plus” reagent (Gibco BRL) and incubated for 15 mins, lipofectamine reagent was added and the mix was incubated for a further 15 mins, this mix was added to the cells on serum free medium in the 10 cm tissue culture plates and left for 3 hours, the cells were then trypsinised and divided into 24 well plates, the cells were left to recover overnight and were treated with steroid for 16 hours before harvest. All experiments were performed from one transfection in triplicate and on separate occasions with similar results.
(§2) The firefly luciferase gene catalyses the production of light from the substrate luciferin. When plasmid constructs containing this gene are transfected into cell lines the activity of the gene can be assessed by the intensity of the luminesence. The luciferase assay yields luminescence through an ATP-dependent oxidation of luciferin the amount of light produced can be measured by a luminometer and is a measure of gene activity (Davis, 1996). Light intensity was measured in a Luminometer (LB 9501, Berthold). The light intensity should be proportional to luciferase concentration in the range of 10^−16M (10 μg/L) to 10^−8M (1 mg/L). To measure the luminescence of the treated cells 150 μl of 1× reporter lysis buffer (RLB: 25 mM Tris phosphate pH7.8, 10 mM MgCl2, 15% Glycerol, 1% Triton, 1 mM EDTA) was added to the 24 well plates to lyse the cells and incubated at room temperature for 30 mins whilst being shaken. Then 100 μl of the room temperature cell extract were mixed with 100 μl of room temperature Luciferase Assay Reagent (LAR: 1 mM ATP, 0.3 mM D-Luciferin, 66% RLB). This reaction was mixed in a luminometer (LB 9501, Berthold) and the light produced was measured for a period of 5 seconds.
To perform this assay the GR and p65 were artificially expressed in a cell line lacking GR and deficient in endogenous P65. The ability of P65 to activate an NFkB response element (NRE) “driving” a luciferase reporter gene could then be repressed by GR in a ligand dependent manner and, therefore, used to measure transrepression.
COS7 cells were transfected with 1 μg pcDNA3-GR and 3 μg NRE-Luc and 200 ng p65 per 10 cm tissue culture dish. The cells were plated out in to 24 well plates after transfection and left for 18 hours to recover before the steroids of FIGS. 1 and 2A were added. After another 18 hour incubation the cells were lysed and a luciferase assay was performed.

Assay [2] deals with T1, glucocorticoid receptor. The assay can be described thus: Transactivation assay using artificially expressed glucocorticoid receptor in the COS 7 monkey kidney cell line (GRE luciferase). Type of assay: cell-based. Details: expressed in transfected cells; host or cells: COS 7 (African green monkey kidney, deficient in endogenous GR). Particulars: for ability to transactivate (luminescence) compared to dexamethasone: 1, 10 and 100 nM, FIGS. 3 and 4; for transactivation potential (luminescence) compared to dexamethasone, repeat experiment: 1, 10, 10 and 500 nM, FIG. 5. The method, then:
as §1, §2
In this assay the GR was artificially expressed in a cell line lacking endogenous GR and a glucocorticoid response element (GRE) “driving” a luciferase reporter gene was used to measure ligand dependent activation.
COS7 cells were transfected with 1 μg pcDNA3-GR and 3 μg AH3-Luc per 10 cm tissue culture dish. The cells were plated out in to 24 well plates after transfection and the steroids were added immediately. After 18 hour incubation the cells were lysed and a luciferase assay was performed.

Entries after “also recorded” stand apart in the source; their conditions may differ.

Take `CC1CC2C3CCC4=CC(=O)C=CC4(C)C3(F)C(O)CC2(C)C1(O)C(=O)COC(=O)c1ccc(F)cc1` (stereo not shown) [Compound D]: the “repression of P65 stimulation of an NFkB response element compared with dexamethasone” value (shortened to “repression … compared with dexamethasone”) in assay [1] is listed as “as potent as dexamethasone”. In assay [2], the “ability to transactivate (luminescence) compared to dexamethasone” value (from here on “ability … compared to dexamethasone”) is recorded as “more active in causing transactivation than dexamethasone”.

As for `CC1CC2C3CCC4=CC(=O)C=CC4(C)C3(F)C(O)CC2(C)C1(O)C(=O)NCCC(=O)O` (stereo not shown) [Q], the “repression … compared with dexamethasone” value in assay [1] is “no effect at 1 and 10 nM with only a negligible repression at 100 nM”. For the same compound, in assay [2], the “ability … compared to dexamethasone” value was “failed to generate a response at any concentration”.

Turning to `Cc1ccc(NC(=O)C2(O)C(C)CC3C4CCC5=CC(=O)C=CC5(C)C4(F)C(O)CC32C)cc1` (stereo not shown) [Compound O], the “repression … compared with dexamethasone” value in assay [1] is given as “failed completely to repress P65 function”. In addition, in assay [2], the “ability … compared to dexamethasone” value is recorded as “failed to generate a response at any concentration”.

In the case of `CC1CC2C3CCC4=CC(=O)C=CC4(C)C3(F)C(O)CC2(C)C1(O)C(=O)NCCCO` (stereo not shown) [L], in assay [1], the “repression … compared with dexamethasone” value is listed as “failed completely to repress P65 function”. In assay [2], the “ability … compared to dexamethasone” value is on record as “failed to generate a response at any concentration”.

`CCCNC(=O)C1(O)C(C)CC2C3CCC4=CC(=O)C=CC4(C)C3(F)C(O)CC21C` (stereo not shown) [Compound G]: in assay [1], the “repression … compared with dexamethasone” value is ““left shifted” response and greater maximal repression”. In addition, in assay [2], the “transactivation potential (luminescence) compared to dexamethasone, repeat experiment” value was ““right shifted response” and a reduced maximum compared to dexamethasone; also recorded: lowest overall maximal response”; the “ability … compared to dexamethasone” value was “much less potent and had a lower maximal effect when compared to dexamethasone”.

Take `CCCCCCNC(=O)OCC(=O)C1(O)C(C)CC2C3CCC4=CC(=O)C=CC4(C)C3(F)C(O)CC21C` (stereo not shown) [Compound T]: the “repression … compared with dexamethasone” value in assay [1] is ““left shifted” response and greater maximal repression”. Moreover, in assay [2], the “transactivation potential (luminescence) compared to dexamethasone, repeat experiment” value is ““right shifted response” and a reduced maximum compared to dexamethasone”.

For `CC1CC2C3CCC4=CC(=O)C=CC4(C)C3(F)C(O)CC2(C)C12OC(C)(C)OCC2=O` (stereo not shown) [Compound A], the “repression … compared with dexamethasone” value in assay [1] is reported as “less potent than dexamethasone but produced the same maximal response at 100 nM”.

As for `CCCOC(=O)C1(O)C(C)CC2C3CCC4=CC(=O)C=CC4(C)C3(F)C(O)CC21C` (stereo not shown) [R], in assay [1], the “repression … compared with dexamethasone” value is recorded as “failed completely to repress P65 function”. In assay [2], the “ability … compared to dexamethasone” value is on record as “failed to generate a response at any concentration”.
